In the assay the target is T1, Polyphenol oxidase 4 (Agaricus bisporus, UniProt C7FF05).
T1 sequence (C7FF05 whole entry): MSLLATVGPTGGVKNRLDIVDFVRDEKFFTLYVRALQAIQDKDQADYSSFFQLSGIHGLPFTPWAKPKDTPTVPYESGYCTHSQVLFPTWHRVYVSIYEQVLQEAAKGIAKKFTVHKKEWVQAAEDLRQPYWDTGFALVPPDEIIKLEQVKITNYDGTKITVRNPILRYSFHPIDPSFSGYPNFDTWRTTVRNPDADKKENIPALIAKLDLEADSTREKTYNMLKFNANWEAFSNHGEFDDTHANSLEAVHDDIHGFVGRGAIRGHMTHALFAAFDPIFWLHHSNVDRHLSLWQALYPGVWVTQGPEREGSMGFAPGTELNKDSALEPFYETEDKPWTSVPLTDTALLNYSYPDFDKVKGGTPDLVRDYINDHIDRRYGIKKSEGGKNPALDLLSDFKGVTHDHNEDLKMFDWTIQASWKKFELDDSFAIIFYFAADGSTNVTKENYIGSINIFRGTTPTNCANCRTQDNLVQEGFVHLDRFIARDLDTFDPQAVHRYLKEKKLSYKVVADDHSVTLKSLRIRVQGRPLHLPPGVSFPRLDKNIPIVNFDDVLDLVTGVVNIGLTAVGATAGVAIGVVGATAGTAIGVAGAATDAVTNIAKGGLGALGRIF
Put plainly: Inhibition of mushroom tyrosinase.

Among the data in BindingDB's records for PubMed 39026645 (Tianjin University) are IC50 values, retold here.

Molecules are shown by their SMILES.

Broadly, the IC50 is the concentration that gives 50% inhibition. High values mean a need for much substance, low ones inhibition by little substance.

Consider `COc1c(O[C@@H]2O[C@H](CO)[C@@H](O)[C@H](O)[C@H]2O)cc2occ(-c3ccc(O)cc3)c(=O)c2c1O` [CHEBI:9428], for which the half-maximal inhibitory concentration (IC50) was 2.6 nM.
The result for `COc1c(O)cc2occ(-c3ccc(O)cc3)c(=O)c2c1O` [Tectorigenin] reads 1.4 nM.
